In patent US10973826B2, “Antibody conjugates comprising toll-like receptor agonist” (Novartis AG, priority 2015, dated 2021):

Assay: In vitro stability of conjugates in mouse serum (LC-MS: succinimide ring hydrolysis, deconjugation)
Type: in vitro ADME
Details: conjugates of the compound with anti-HER2 mAb2
Procedure: The stability of the bond formed between maleimide containing payloads and Cys residues of the antibody is enhanced by the hydrolysis of the succinimide ring formed in this reaction. The effects of succinimide ring hydrolysis on the stability of antibody conjugates prepared with agonist compounds of the invention were studied after in vitro incubation in mouse serum. Mass changes resulting from payload deconjugation and the hydrolysis of the succinimide ring of maleimide payloads conjugated to antibodies were monitored by LC-MS. The hydrolysis of the succinimide ring has been reported to be stimulated by certain conditions such as high pH, high temperature, or high salts (J. Am. Chem. Soc. 1955, 77: 3922; Biochemistry 1976, 15: 2836; Biochem. J. 1979, 179: 191-197; J Pharm Sci. 1984, 73:1767-1771; Bioorg. Med. Chem. Lett. 17: 6286-6289, 2007). To probe the in vitro stability of conjugates, anti-HER2 antibody mAb2 conjugates were incubated at 37° C. in 50-70% mouse serum. […] The light chain, heavy chain Fab, and heavy chain Fc fragments were then analyzed by ESI-MS. The relative populations of deconjugated antibody, conjugates with attached payload with hydrolyzed succinimide ring, and conjugates with attached payload with intact succinimide ring, were calculated from the relative MS intensities of the corresponding conjugate species. […]

| conjugate stability (deconjugation, succinimide ring hydrolysis) | SMILES |
| --- | --- |
| improved conjugate stability | CCCCCNc1nc(N)nc2ccn(Cc3ccc(CN4CCN(CCN5C(=O)C=CC5=O)CC4)cc3OC)c12 [Compound C-5, 1-(2-(4-(4-((2-amino-4-(pentylamino)-5H-pyrrolo[3,2-d]pyrimidin-5-yl)methyl)-3-methoxybenzyl)piperazin-1-yl)ethyl)-1H-pyrrole-2,5-dione] |
| improved conjugate stability | CCCCCNc1nc(N)nc2ccn(Cc3ccc(CN4CCN(C(=O)CCOCCOCCNC(=O)CN5C(=O)C=CC5=O)CC4)cc3OC)c12 [Compound C-21, N-(2-(2-(3-(4-(4-((2-amino-4-(pentylamino)-5H-pyrrolo[3,2-d]pyrimidin-5-yl)methyl)-3-methoxybenzyl)piperazin-1-yl)-3-oxopropoxy)ethoxy)ethyl)-2-(2,5-dioxo-2,5-dihydro-1H-pyrrol-1-yl)acetamide] |
